Results: ChEMBL document CHEMBL1201862, “PubChem BioAssay data set” (2004)
Values joined by “and” are separate entries in the source; they are usually repeats but may differ in a detail not shown here. Identical values can stand only once.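 The compound was tested at five concentrations on cells cultured in 96-well plates, with a 48-hour exposure period. Here, GI50 denotes the concentration required for 50% inhibition of growth.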 Active and inactive are the calls of the source. Rule as the data show it: active = GI50 up to about 1.1 µM and inactive = higher.

Assays:
Experiment in all cases: NCI-60 cell line screen, 48 h
KM12 = system: KM12
SW-620 = system: SW-620
PC-3 = system: PC-3
SK-OV-3 = system: SK-OV-3
HOP-92 = system: HOP-92
SR = system: SR
BT-549 = system: BT-549
HCT-116 = system: HCT-116
OVCAR-4 = system: OVCAR-4
COLO 205 = system: COLO 205
Hs-578T = system: Hs-578T
HL-60 = system: HL-60
IGROV-1 = system: IGROV-1
K562 = system: K562
SF-268 = system: SF-268
Malme-3M = system: Malme-3M
ACHN = system: ACHN
TK-10 = system: TK-10
OVCAR-5 = system: OVCAR-5

SMILES | GI50 (KM12) | GI50 (SW-620) | GI50 (PC-3) | GI50 (SK-OV-3) | GI50 (HOP-92) | GI50 (SR) | GI50 (BT-549) | GI50 (HCT-116) | GI50 (OVCAR-4) | GI50 (COLO 205) | GI50 (Hs-578T) | GI50 (HL-60) | GI50 (IGROV-1) | GI50 (K562) | GI50 (SF-268) | GI50 (Malme-3M) | GI50 (ACHN) | GI50 (TK-10) | GI50 (OVCAR-5)
O=C(C(Cl)=C(Nc1ccccc1)Nc1ccccc1)C(Cl)Cl | 39.1 µM (inactive) | 18.8 µM (inactive) | 36.9 µM (inactive) | 37.6 µM (inactive) | 21.8 µM (inactive) | 16.5 µM (inactive) | 37.2 µM (inactive) | 17.3 µM (inactive) | 36.1 µM (inactive) | 30.6 µM (inactive) | > 100 µM (inactive) | 17.4 µM (inactive) | 32.1 µM (inactive) | 25.3 µM (inactive) | 31.7 µM (inactive) | 20.3 µM (inactive) | 27.5 µM (inactive) | 40.3 µM (inactive) | –
Cc1ccccc1NC(=S)N/N=C(/c1ccccc1)c1ccccn1 | 0.0405 µM (active) | < 0.01 µM (active) | < 0.01 µM (active) | 0.0128 µM (active) | 0.283 µM (active) | < 0.0262 µM (active) | 2.58 µM (inactive) | < 0.01 µM (active) | 0.0826 µM (active) | < 0.01 µM (active) | 13.2 µM (inactive) | < 0.0736 µM (active) | < 0.01 µM (active) | < 0.0282 µM (active) | 0.0904 µM (active) | – | < 0.01 µM (active) | < 0.0295 µM (active) | < 0.0165 µM (active)
COc1ccc(-c2nnc3n(Cc4ccccc4)c4ccccc4n3c2=O)cc1 | > 100 µM (inactive) | > 100 µM (inactive) | 5.92 µM (inactive) | – | 19.4 µM (inactive) | > 100 µM (inactive) | > 100 µM (inactive) | 38.7 µM (inactive) | 6.01 µM (inactive) | > 100 µM (inactive) | 22.1 µM (inactive) | > 100 µM (inactive) | 13.3 µM (inactive) | – | 22.7 µM (inactive) | 51.9 µM (inactive) | 15.2 µM (inactive) | 21.9 µM (inactive) | 42.8 µM (inactive)
CCCCCC#CCOC(=O)C(=[N+]=[N-])P(=O)(c1ccccc1)c1ccccc1 | > 10 µM (inactive) | > 10 µM (inactive) | > 10 µM (inactive) | > 10 µM (inactive) | > 10 µM (inactive) | > 10 µM (inactive) | > 10 µM (inactive) | 8.26 µM (inactive) | – | – | > 10 µM (inactive) | > 10 µM (inactive) | > 10 µM (inactive) | > 10 µM (inactive) | > 10 µM (inactive) | > 10 µM (inactive) | > 10 µM (inactive) | > 10 µM (inactive) | > 10 µM (inactive)
Cc1nc2c(=O)n(C)c(=O)nc-2n(CCO)c1C | > 100 µM (inactive) | > 100 µM (inactive) | > 100 µM (inactive) | > 100 µM (inactive) | > 100 µM (inactive) | > 100 µM (inactive) | > 100 µM (inactive) | > 100 µM (inactive) | > 100 µM (inactive) | > 100 µM (inactive) | > 100 µM (inactive) | – | > 100 µM (inactive) | > 100 µM (inactive) | > 100 µM (inactive) | > 100 µM (inactive) | > 100 µM (inactive) | > 100 µM (inactive) | > 100 µM (inactive)
O=C(CCc1ccccc1CO)NCCc1ccccc1 | > 100 µM (inactive) | > 100 µM (inactive) | > 100 µM (inactive) | > 100 µM (inactive) | > 100 µM (inactive) | > 100 µM (inactive) | > 100 µM (inactive) | > 100 µM (inactive) | 59.6 µM (inactive) | > 100 µM (inactive) | 20 µM (inactive) | 72.4 µM (inactive) | > 100 µM (inactive) | > 100 µM (inactive) | > 100 µM (inactive) | – | > 100 µM (inactive) | > 100 µM (inactive) | > 100 µM (inactive)
CC(C)C(Sc1nc(N)nc2nc[nH]c12)C(=O)O (stereo not given) | > 100 µM (inactive) | > 100 µM (inactive) | > 100 µM (inactive) | > 100 µM (inactive) | – | > 100 µM (inactive) | > 100 µM (inactive) | > 100 µM (inactive) | > 100 µM (inactive) | > 100 µM (inactive) | > 100 µM (inactive) | > 100 µM (inactive) | > 100 µM (inactive) | > 100 µM (inactive) | > 100 µM (inactive) | > 100 µM (inactive) | > 100 µM (inactive) | > 100 µM (inactive) | > 100 µM (inactive)
COc1cccc(-c2cc(O)c3c(C)ccnc3n2)c1 | 0.0257 µM (active) | < 0.0177 µM (active) | 0.0223 µM (active) | 0.0365 µM (active) | – | < 0.01 µM (active) | 21.2 µM (inactive) | 0.0392 µM (active) | 18 µM (inactive) | 0.0199 µM (active) | 0.0222 µM (active) | < 0.0114 µM (active) | 0.0493 µM (active) | < 0.0113 µM (active) | 0.0439 µM (active) | < 0.01 µM (active) | 0.0483 µM (active) | > 100 µM (inactive) | 0.0748 µM (active)
CSc1nc(=S)[nH]c2c1c(C)nn2-c1ccccc1 | – | 34.5 µM (inactive) | 25.7 µM (inactive) | 24.8 µM (inactive) | 7.1 µM (inactive) | 11.2 µM (inactive) | 19.7 µM (inactive) | 17.8 µM (inactive) | 17.2 µM (inactive) | 20.1 µM (inactive) | 38 µM (inactive) | 28.1 µM (inactive) | – | 16.6 µM (inactive) | 22.1 µM (inactive) | 17.1 µM (inactive) | 21.9 µM (inactive) | 24.4 µM (inactive) | 51.1 µM (inactive)
CCOC(=O)c1c(N2CCCC2)[nH]c(=O)c(C(c2ccc(Cl)c([N+](=O)[O-])c2)c2c(O)c(C(=O)OCC)c(N3CCCC3)[nH]c2=O)c1O | > 100 µM (inactive) | 33.3 µM (inactive) | 28.1 µM (inactive) | 85.5 µM (inactive) | 18.5 µM (inactive) | 40.3 µM (inactive) | 16.3 µM (inactive) | 34 µM (inactive) | > 100 µM (inactive) | > 100 µM (inactive) | 6.55 µM (inactive) | – | – | 63.2 µM (inactive) | 23 µM (inactive) | 38.9 µM (inactive) | 34.3 µM (inactive) | 19.2 µM (inactive) | 30.2 µM (inactive)
CC1(C)Cc2c(sc3[nH]c(=S)[nH]c(=S)c23)CS1 | 45.8 µM (inactive) | 53.1 µM (inactive) | 25.4 µM (inactive) | 27.7 µM (inactive) | 12.4 µM (inactive) | 48.6 µM (inactive) | 46.3 µM (inactive) | 47 µM (inactive) | 18.2 µM (inactive) | 32.1 µM (inactive) | 45.2 µM (inactive) | 33.2 µM (inactive) | 29.9 µM (inactive) | 29.2 µM (inactive) | 32.7 µM (inactive) | 20.6 µM (inactive) | – | 95.5 µM (inactive) | –
O=[N+]([O-])/C(Cl)=C/C(=C1/Nc2ccccc2O1)[N+](=O)[O-] | 19.2 µM (inactive) | 32.7 µM (inactive) | 14.1 µM (inactive) | 24 µM (inactive) | 24.7 µM (inactive) | 8.71 µM (inactive) | 16.3 µM (inactive) | 13.9 µM (inactive) | 29 µM (inactive) | 21.2 µM (inactive) | 27.2 µM (inactive) | 11.6 µM (inactive) | 33.1 µM (inactive) | 32.7 µM (inactive) | 16.3 µM (inactive) | 14.3 µM (inactive) | 18.1 µM (inactive) | 44.1 µM (inactive) | –
CC(=O)c1cc2c(s1)C(=O)c1sccc1C2=O | 0.118 µM (active) | 0.0569 µM (active) | 0.0568 µM (active) | 1.73 µM (inactive) | 0.294 µM (active) | 0.0133 µM (active) | 0.0184 µM (active) | 0.0698 µM (active) | 0.0706 µM (active) | 1.31 µM (inactive) | 0.0365 µM (active) | – | 0.168 µM (active) | 0.018 µM (active) | 0.0267 µM (active) | 0.0163 µM (active) | 0.0209 µM (active) | 0.212 µM (active) | 0.0664 µM (active)
Cc1cccc(C[C@@]2(SCc3ccccc3)C(C)(C)[C@@H]3CC[C@@]2(C)C3)n1 | 16.4 µM (inactive) | 15 µM (inactive) | 20 µM (inactive) | 20.4 µM (inactive) | 14.3 µM (inactive) | 14.6 µM (inactive) | 20 µM (inactive) | 14.7 µM (inactive) | – | 15.6 µM (inactive) | 19.7 µM (inactive) | 13.3 µM (inactive) | 15.1 µM (inactive) | 13.1 µM (inactive) | 16.1 µM (inactive) | 15.5 µM (inactive) | 15.5 µM (inactive) | 17.6 µM (inactive) | 18 µM (inactive)
COc1ccc2[nH]cc([C@@H]3C4CCC(C4)[C@H]3NCc3cccc(CN[C@H]4C5CCC(C5)[C@@H]4c4c[nH]c5ccc(OC)cc45)c3)c2c1 | 463 nM (active) and 643 nM (active) | 238 nM (active) and 384 nM (active) | 1.29 µM (inactive) and 1.46 µM (inactive) | – | 1.1 µM (active) and 1.31 µM (inactive) | 231 nM (active) and 250 nM (active) | 1.69 µM (inactive) and 1.62 µM (inactive) | 766 nM (active) and 678 nM (active) | 1.37 µM (inactive) and 1.32 µM (inactive) | 401 nM (active) and 577 nM (active) | 1.71 µM (inactive) and 1.5 µM (inactive) | 214 nM (active) and 191 nM (active) | 1.42 µM (inactive) and 1.58 µM (inactive) | 228 nM (active) and 178 nM (active) | 1.53 µM (inactive) and 1.47 µM (inactive) | 1.86 µM (inactive) and 1.88 µM (inactive) | 1.76 µM (inactive) and 1.16 µM (inactive) | 1.63 µM (inactive) and 1.51 µM (inactive) | 1.55 µM (inactive) and 1.71 µM (inactive)
